Results from patent US20250145606A1 (Arcus Biosciences, Inc., priority 2023, published 2025).
Read-outs that look alike come from different tables or passages of the source.

How the values were obtained:
PDGFRα = PDGFRα (Homo sapiens (Human), UniProt P16234); assay: Inhibition of PDGFRα kinase activity (HTRF KinEASE-TK); details: biochemical
How it was run: (§1)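 Human kinases were preincubated 1 h at rt with a 22-point 1:2 compound titration, then run 120 min at rt with biotinylated TK peptide and ATP (2× mix: c-Kit 16 μM, PDGFRα 1 μM, PDGFRβ 40 μM, CSF1R 20 μM). Phosphopeptide was read by HTRF TR-FRET (665/620 nm), and IC50s came from 4-parameter fits.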

CSF1R = CSF1R (Homo sapiens (Human), UniProt P07333); assay: Inhibition of CSF1R kinase activity (HTRF KinEASE-TK); details: biochemical
CSF1R, sequence (P07333 20-972): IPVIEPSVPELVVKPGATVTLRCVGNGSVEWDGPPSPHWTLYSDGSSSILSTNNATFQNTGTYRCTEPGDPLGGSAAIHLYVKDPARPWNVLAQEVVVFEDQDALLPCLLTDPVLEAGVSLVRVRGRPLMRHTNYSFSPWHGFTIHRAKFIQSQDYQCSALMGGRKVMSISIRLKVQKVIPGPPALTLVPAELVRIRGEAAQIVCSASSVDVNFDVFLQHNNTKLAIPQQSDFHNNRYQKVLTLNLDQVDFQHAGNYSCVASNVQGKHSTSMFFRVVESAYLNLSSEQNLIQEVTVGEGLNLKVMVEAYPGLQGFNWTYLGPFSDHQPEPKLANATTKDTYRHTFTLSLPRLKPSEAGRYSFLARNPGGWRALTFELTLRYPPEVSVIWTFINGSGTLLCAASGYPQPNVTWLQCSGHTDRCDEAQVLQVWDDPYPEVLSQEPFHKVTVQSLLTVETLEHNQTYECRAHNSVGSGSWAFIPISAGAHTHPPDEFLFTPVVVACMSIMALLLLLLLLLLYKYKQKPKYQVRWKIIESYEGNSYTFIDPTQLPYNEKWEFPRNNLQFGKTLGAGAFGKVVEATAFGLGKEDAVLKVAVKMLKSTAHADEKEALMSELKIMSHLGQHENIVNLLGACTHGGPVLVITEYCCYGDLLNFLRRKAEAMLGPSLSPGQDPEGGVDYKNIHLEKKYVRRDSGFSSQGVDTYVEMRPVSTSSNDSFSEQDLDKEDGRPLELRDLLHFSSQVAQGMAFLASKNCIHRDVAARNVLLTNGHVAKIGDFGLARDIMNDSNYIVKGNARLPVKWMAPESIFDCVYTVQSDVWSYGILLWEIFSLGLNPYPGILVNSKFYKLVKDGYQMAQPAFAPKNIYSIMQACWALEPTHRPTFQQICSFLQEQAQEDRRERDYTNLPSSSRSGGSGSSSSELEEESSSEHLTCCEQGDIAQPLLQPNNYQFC
How it was run: as §1

c-Kit = c-Kit (Homo sapiens (Human), UniProt P10721); assay: Inhibition of c-Kit kinase activity (HTRF KinEASE-TK); assay type: biochemical
c-Kit, sequence (P10721 26-976): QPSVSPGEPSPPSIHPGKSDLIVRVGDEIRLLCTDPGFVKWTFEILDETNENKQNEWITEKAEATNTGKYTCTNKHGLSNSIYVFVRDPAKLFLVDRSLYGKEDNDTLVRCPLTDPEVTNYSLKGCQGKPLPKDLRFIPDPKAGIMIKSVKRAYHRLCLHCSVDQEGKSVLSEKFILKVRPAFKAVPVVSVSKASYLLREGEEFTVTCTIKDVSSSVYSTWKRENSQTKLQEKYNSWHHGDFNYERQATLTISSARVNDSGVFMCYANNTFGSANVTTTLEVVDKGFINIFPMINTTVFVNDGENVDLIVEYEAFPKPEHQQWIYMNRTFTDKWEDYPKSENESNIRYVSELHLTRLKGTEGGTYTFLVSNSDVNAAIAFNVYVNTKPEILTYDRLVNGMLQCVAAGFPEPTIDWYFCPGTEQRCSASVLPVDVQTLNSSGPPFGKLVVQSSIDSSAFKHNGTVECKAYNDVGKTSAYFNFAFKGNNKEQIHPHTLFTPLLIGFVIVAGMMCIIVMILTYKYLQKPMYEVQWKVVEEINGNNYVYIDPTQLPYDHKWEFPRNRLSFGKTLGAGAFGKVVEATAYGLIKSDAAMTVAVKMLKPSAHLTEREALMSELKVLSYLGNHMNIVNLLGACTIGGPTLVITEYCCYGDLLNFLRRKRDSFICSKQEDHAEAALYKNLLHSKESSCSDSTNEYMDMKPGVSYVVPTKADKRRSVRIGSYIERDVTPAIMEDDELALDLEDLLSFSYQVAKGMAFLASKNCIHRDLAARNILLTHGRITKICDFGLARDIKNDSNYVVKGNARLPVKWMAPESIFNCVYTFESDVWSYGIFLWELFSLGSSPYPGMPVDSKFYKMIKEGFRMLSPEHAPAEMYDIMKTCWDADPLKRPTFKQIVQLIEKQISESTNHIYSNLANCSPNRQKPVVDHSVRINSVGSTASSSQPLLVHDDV
How it was run: as §1

[1] = test system: Phospho-KIT (Y703) in M07e cells; assay: Phospho-KIT (Y703) cellular assay in M07e cells; assay type: cell-based; details: M-07e, read-out: M07e Cell IC50
How it was run: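 Serum-starved M07e cells preincubated 50 min at 37° C with 11-point half-log compound titration, then stimulated 10 min with SCF at 90.9 ng/mL final. Fixed, permeabilized cells stained for phospho-KIT Y703 and read by flow cytometry (live-gated geometric mean); IC50 by 4-parameter fit normalized to DMSO and positive control.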

FLT3 = FLT3 (Homo sapiens (Human), UniProt P36888); assay: Inhibition of FLT3 kinase activity (HTRF KinEASE-TK); assay type: biochemical
FLT3, sequence (P36888 27-993): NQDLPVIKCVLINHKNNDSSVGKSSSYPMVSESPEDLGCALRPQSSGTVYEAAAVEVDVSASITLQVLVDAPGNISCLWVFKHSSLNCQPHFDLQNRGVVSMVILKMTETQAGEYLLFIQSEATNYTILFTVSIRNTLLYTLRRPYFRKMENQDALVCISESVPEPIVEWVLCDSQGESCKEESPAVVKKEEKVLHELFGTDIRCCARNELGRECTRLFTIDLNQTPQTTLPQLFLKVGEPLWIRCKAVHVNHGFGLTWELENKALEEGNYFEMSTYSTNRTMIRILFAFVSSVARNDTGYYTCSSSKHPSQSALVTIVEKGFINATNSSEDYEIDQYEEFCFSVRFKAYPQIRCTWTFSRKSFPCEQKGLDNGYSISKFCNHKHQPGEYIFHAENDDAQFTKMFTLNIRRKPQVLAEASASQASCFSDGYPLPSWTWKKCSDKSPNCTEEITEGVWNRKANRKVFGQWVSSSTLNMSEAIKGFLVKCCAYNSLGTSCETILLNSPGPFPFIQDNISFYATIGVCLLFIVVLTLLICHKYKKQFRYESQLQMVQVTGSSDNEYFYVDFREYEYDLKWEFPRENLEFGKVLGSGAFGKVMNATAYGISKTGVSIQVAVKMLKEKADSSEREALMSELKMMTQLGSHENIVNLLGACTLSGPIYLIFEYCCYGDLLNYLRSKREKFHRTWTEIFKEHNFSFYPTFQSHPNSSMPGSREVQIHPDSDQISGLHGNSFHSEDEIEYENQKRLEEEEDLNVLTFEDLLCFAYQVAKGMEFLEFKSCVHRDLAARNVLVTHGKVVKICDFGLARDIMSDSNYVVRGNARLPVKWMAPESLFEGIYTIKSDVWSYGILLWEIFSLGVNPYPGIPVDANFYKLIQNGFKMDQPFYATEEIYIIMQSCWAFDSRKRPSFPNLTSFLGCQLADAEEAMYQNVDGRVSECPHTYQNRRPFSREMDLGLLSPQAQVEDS
How it was run: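 FLT3 tyrosine kinase activity was measured with the HTRF KinEASE-TK kit by following phosphorylation of a biotinylated TK peptide. After the 45 min reaction, 10 μL of detection mix was added: 0.2 μM (2×) Streptavidin-XL665 and 2 μM (2×) TK-Antibody-Cryptate in detection buffer. After 60 min, TR-FRET was read on an Envision as the 665 nm/620 nm emission ratio with 320 nm excitation.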

PDGFRβ = PDGFRβ (Homo sapiens (Human), UniProt P09619); assay: Inhibition of PDGFRβ kinase activity (HTRF KinEASE-TK); details: biochemical
PDGFRβ, sequence (P09619 33-1106): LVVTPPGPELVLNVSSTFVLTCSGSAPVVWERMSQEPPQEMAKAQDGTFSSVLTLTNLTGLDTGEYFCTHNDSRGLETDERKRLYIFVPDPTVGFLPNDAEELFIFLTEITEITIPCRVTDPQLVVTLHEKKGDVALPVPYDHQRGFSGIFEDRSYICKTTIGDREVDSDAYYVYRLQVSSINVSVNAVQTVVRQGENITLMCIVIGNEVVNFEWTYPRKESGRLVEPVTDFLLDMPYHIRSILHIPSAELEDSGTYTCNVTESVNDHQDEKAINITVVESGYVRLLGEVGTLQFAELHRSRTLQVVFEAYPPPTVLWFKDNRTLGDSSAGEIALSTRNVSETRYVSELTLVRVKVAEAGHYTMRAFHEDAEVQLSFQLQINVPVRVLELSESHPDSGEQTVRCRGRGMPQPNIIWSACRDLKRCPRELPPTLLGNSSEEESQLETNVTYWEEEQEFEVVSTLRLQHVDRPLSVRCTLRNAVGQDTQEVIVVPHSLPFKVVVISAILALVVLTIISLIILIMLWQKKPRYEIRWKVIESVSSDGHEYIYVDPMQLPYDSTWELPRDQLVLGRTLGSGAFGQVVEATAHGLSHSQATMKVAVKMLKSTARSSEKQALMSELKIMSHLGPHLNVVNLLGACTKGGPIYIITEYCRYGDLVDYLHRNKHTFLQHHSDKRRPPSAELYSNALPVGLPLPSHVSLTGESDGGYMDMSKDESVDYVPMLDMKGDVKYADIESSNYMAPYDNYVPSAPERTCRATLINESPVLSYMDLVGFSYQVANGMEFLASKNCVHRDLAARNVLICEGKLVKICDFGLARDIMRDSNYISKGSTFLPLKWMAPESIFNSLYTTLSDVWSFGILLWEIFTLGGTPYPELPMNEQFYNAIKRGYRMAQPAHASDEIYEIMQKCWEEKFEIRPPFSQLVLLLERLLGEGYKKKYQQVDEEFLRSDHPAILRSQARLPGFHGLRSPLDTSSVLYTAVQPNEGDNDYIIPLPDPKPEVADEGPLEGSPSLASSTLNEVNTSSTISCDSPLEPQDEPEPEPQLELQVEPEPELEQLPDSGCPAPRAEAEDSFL
How it was run: as §1

[2] = phospho-KIT (Y703), SCF-stimulated M07e cells

PDGFRα, sequence (P16234 24-1089): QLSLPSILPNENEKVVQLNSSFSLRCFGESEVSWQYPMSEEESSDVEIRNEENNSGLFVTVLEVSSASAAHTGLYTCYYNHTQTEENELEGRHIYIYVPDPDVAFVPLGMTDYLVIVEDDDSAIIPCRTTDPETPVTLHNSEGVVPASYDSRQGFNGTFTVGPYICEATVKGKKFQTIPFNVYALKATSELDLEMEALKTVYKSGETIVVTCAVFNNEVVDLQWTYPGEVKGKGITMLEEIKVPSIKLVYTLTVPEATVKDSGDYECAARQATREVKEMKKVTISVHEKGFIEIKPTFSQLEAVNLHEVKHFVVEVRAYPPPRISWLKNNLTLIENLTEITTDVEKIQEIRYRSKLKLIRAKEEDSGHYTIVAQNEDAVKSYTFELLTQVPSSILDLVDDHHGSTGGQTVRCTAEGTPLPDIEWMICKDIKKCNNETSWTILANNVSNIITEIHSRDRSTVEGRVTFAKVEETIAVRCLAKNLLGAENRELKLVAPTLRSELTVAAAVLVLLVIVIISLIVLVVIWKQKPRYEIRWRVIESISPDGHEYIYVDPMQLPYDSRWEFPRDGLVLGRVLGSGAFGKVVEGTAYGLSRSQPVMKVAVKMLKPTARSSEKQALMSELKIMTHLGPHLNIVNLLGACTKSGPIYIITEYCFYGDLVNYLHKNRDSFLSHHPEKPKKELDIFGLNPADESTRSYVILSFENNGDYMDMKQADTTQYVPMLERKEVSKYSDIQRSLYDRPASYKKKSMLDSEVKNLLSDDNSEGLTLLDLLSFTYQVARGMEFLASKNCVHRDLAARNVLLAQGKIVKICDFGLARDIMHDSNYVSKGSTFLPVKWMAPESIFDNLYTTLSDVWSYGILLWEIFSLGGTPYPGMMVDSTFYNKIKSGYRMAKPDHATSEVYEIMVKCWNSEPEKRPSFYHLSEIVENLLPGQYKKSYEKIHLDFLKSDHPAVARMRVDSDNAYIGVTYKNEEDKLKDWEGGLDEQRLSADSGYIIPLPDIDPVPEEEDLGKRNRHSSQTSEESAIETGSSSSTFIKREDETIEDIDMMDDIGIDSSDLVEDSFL

Row | SMILES | IC50 (PDGFRα; HTRF KinEASE-TK) [µM] | IC50 (CSF1R; HTRF KinEASE-TK) [µM] | IC50 (c-Kit; biochemical, HTRF KinEASE-TK) [µM] | IC50 ([1]; Phospho-KIT (Y703), M07e cells) [µM] | IC50 (FLT3; biochemical, HTRF KinEASE-TK) [µM] | IC50 (PDGFRβ; HTRF KinEASE-TK) [µM] | IC50 (c-Kit) [µM] | IC50 [1] [µM] | IC50 (FLT3) [µM] | IC50 (PDGFRα) [µM] | IC50 (CSF1R) [µM] | IC50 (c-Kit; biochemical) [µM] | IC50 [1, 2] [µM] | IC50 (FLT3; biochemical) [µM] | IC50 (PDGFRβ) [µM]
1 | CO[C@H](C)c1ccc(NC(=O)c2cc(NC(=O)c3cnc(N)s3)c(C)cc2F)nc1 [Example 256, 2-Amino-N-[4-fluoro-5-[[5-[(1R)-1-methoxyethyl]pyridin-2-yl]carbamoyl]-2-methylphenyl]-1,3-thiazole-5-carboxamide] | > 1 | > 1 | < 0.1 | < 0.1 | > 1 | 0.1 to 1 |  |  |  |  |  |  |  |  | 
2 | CCn1ccc(NC(=O)c2cc(NC(=O)c3cnc(N)s3)c(C)cc2F)n1 [Example 179, 2-Amino-N-[5-[(1-ethylpyrazol-3-yl)carbamoyl]-4-fluoro-2-methylphenyl]-1,3-thiazole-5-carboxamide] | > 1 | > 1 | < 0.1 | < 0.1 | > 1 | > 1 |  |  |  |  |  |  |  |  | 
3 | Cc1ncc(C(=O)Nc2cc(C(=O)Nc3ccn(CC(C)C)n3)c(F)cc2C)s1 [Example 64, N-[4-fluoro-2-methyl-5-[[1-(2-methylpropyl)pyrazol-3-yl]carbamoyl]phenyl]-2-methyl-1,3-thiazole-5-carboxamide] | > 1 | > 1 | < 0.1 | < 0.1 | > 1 | > 1 |  |  |  |  |  |  |  |  | 
4 | Cc1cc(F)c(C(=O)NCC2(F)CC2)cc1NC(=O)c1cnc(NC(=O)N2CCC2)s1 [Example 103, 2-(Azetidine-1-carbonylamino)-N-[4-fluoro-5-[(1-fluorocyclopropyl)methylcarbamoyl]-2-methylphenyl]-1,3-thiazole-5-carboxamide] | 0.1 to 1 | > 1 | < 0.1 | < 0.1 | > 1 | 0.1 to 1 |  |  |  |  |  |  |  |  | 
5 | Nc1ncc(C(=O)Nc2cc(C(=O)Nc3cnc(C4CC4)nc3)c(F)cc2Cl)s1 [Example 204, 2-Amino-N-[2-chloro-5-[(2-cyclopropylpyrimidin-5-yl)carbamoyl]-4-fluorophenyl]-1,3-thiazole-5-carboxamide] | 0.1 to 1 | 0.1 to 1 | < 0.1 | < 0.1 | > 1 | 0.1 to 1 |  |  |  |  |  |  |  |  | 
6 | CO[C@@H](C)c1ccc(NC(=O)c2cc(NC(=O)c3cnc(N)s3)c(C)cc2F)nc1 [Example 257, 2-Amino-N-[4-fluoro-5-[[5-[(1S)-1-methoxyethyl]pyridin-2-yl]carbamoyl]-2-methylphenyl]-1,3-thiazole-5-carboxamide] | > 1 | > 1 | < 0.1 | < 0.1 | > 1 | 0.1 to 1 |  |  |  |  |  |  |  |  | 
7 | COc1ccc(NC(=O)c2cc(NC(=O)c3cnc(N)s3)c(C)cc2F)cc1 [Example 230, 2-Amino-N-[4-fluoro-5-[(4-methoxyphenyl)carbamoyl]-2-methylphenyl]-1,3-thiazole-5-carboxamide] | 0.1 to 1 | 0.1 to 1 | < 0.1 | < 0.1 | > 1 | 0.1 to 1 |  |  |  |  |  |  |  |  | 
8 | Cc1cc(F)c(C(=O)Nc2ccc(COC(C)C)cn2)cc1NC(=O)c1cnc(N)s1 [Example 195, 2-Amino-N-[4-fluoro-2-methyl-5-[[5-(propan-2-yloxymethyl)pyridin-2-yl]carbamoyl]phenyl]-1,3-thiazole-5-carboxamide] | > 1 | > 1 | < 0.1 | < 0.1 | 0.1 to 1 | > 1 |  |  |  |  |  |  |  |  | 
9 | Cc1cc(F)c(C(=O)Nc2ccc(OC(C)C)cn2)cc1NC(=O)c1cnc(N)s1 [Example 140, 2-Amino-N-[4-fluoro-2-methyl-5-[(5-propan-2-yloxypyridin-2-yl)carbamoyl]phenyl]-1,3-thiazole-5-carboxamide] | 0.1 to 1 | 0.1 to 1 |  |  |  | 0.1 to 1 | < 0.1 | < 0.1 | > 1 |  |  |  |  |  | 
10 | Cc1cc(F)c(C(=O)Nc2ccc(OC3CC3)cc2)cc1NC(=O)c1cnc(N)s1 [Example 229, 2-Amino-N-[5-[(4-cyclopropyloxyphenyl)carbamoyl]-4-fluoro-2-methylphenyl]-1,3-thiazole-5-carboxamide] | < 0.1 | 0.1 to 1 | < 0.1 | < 0.1 | > 1 | < 0.1 |  |  |  |  |  |  |  |  | 
11 | Cc1cc(F)c(C(=O)Nc2ccc(OC(F)F)cn2)cc1NC(=O)c1cnc(N)s1 [Example 9, 2-Amino-N-[5-[[5-(difluoromethoxy)pyridin-2-yl]carbamoyl]-4-fluoro-2-methylphenyl]-1,3-thiazole-5-carboxamide] |  |  |  |  |  |  |  |  |  | > 1 | 0.1 to 1 | < 0.1 | < 0.1 | > 1 | 0.1 to 1
12 | Cc1cc(F)c(C(=O)Nc2ccn(C3CC(F)(F)C3)n2)cc1NC(=O)c1cnc(N)s1 [Example 139, 2-Amino-N-[5-[[1-(3,3-difluorocyclobutyl)pyrazol-3-yl]carbamoyl]-4-fluoro-2-methylphenyl]-1,3-thiazole-5-carboxamide] | 0.1 to 1 | > 1 | < 0.1 | < 0.1 | > 1 | 0.1 to 1 |  |  |  |  |  |  |  |  | 
13 | Nc1ncc(C(=O)Nc2cc(C(=O)Nc3ccc(C(F)(F)F)cn3)c(F)cc2F)s1 [Example 216, 2-Amino-N-[2,4-difluoro-5-[[5-(trifluoromethyl)pyridin-2-yl]carbamoyl]phenyl]-1,3-thiazole-5-carboxamide] | > 1 | 0.1 to 1 | < 0.1 | < 0.1 | > 1 | > 1 |  |  |  |  |  |  |  |  | 
14 | Cc1cc(F)c(C(=O)Nc2ccc(CC(F)(F)F)cn2)cc1NC(=O)c1cnc(N)s1 [Example 11, 2-Amino-N-[4-fluoro-2-methyl-5-[[5-(2,2,2-trifluoroethyl)pyridin-2-yl]carbamoyl]phenyl]-1,3-thiazole-5-carboxamide] |  |  |  |  |  |  |  |  |  | 0.1 to 1 | 0.1 to 1 | < 0.1 | < 0.1 | > 1 | < 0.1
15 | Nc1ncc(C(=O)Nc2cc(C(=O)Nc3ccc(C(F)F)cn3)c(F)cc2Cl)s1 [Example 206, 2-Amino-N-[2-chloro-5-[[5-(difluoromethyl)pyridin-2-yl]carbamoyl]-4-fluorophenyl]-1,3-thiazole-5-carboxamide] | > 1 | 0.1 to 1 | < 0.1 | < 0.1 | > 1 | 0.1 to 1 |  |  |  |  |  |  |  |  | 
16 | COCc1ccc(NC(=O)c2cc(NC(=O)c3cnc(N)s3)c(Cl)cc2F)nc1 [Example 202, 2-Amino-N-[2-chloro-4-fluoro-5-[[5-(methoxymethyl)pyridin-2-yl]carbamoyl]phenyl]-1,3-thiazole-5-carboxamide] | > 1 | > 1 | < 0.1 | < 0.1 | > 1 | > 1 |  |  |  |  |  |  |  |  | 
17 | COCc1ccc(NC(=O)c2cc(NC(=O)c3cnc(N)s3)c(F)cc2F)nc1 [Example 215, 2-Amino-N-[2,4-difluoro-5-[[5-(methoxymethyl)pyridin-2-yl]carbamoyl]phenyl]-1,3-thiazole-5-carboxamide] | > 1 | > 1 | 0.1 to 1 | > 1 | > 1 | > 1 |  |  |  |  |  |  |  |  | 
18 | Cc1ccc(NC(=O)c2cc(NC(=O)c3cnc(N)s3)c(C)cc2F)nc1 [Example 133, 2-Amino-N-[4-fluoro-2-methyl-5-[(5-methylpyridin-2-yl)carbamoyl]phenyl]-1,3-thiazole-5-carboxamide] | > 1 | > 1 | < 0.1 | < 0.1 | > 1 | > 1 |  |  |  |  |  |  |  |  | 
19 | Cc1cc(F)c(C(=O)Nc2ccc(OC3(C)CC3)cn2)cc1NC(=O)c1cnc(N)s1 [Example 147, 2-Amino-N-[4-fluoro-2-methyl-5-[[5-(1-methylcyclopropyl)oxypyridin-2-yl]carbamoyl]phenyl]-1,3-thiazole-5-carboxamide] | 0.1 to 1 | 0.1 to 1 | < 0.1 | < 0.1 | > 1 | < 0.1 |  |  |  |  |  |  |  |  | 
20 | Cc1cc(F)c(C(=O)N[C@H]2CCOC2)cc1NC(=O)c1cnc(N)s1 [Example 194, 2-Amino-N-[4-fluoro-2-methyl-5-[[(3S)-oxolan-3-yl]carbamoyl]phenyl]-1,3-thiazole-5-carboxamide] | > 1 | > 1 | < 0.1 | 0.1 to 1 | > 1 | > 1 |  |  |  |  |  |  |  |  | 
21 | Cc1cc(F)c(C(=O)Nc2ccc(OC3CC3)c(C)n2)cc1NC(=O)c1cnc(N)s1 [Example 152, 2-Amino-N-[5-[(5-cyclopropyloxy-6-methylpyridin-2-yl)carbamoyl]-4-fluoro-2-methylphenyl]-1,3-thiazole-5-carboxamide] | 0.1 to 1 | > 1 | < 0.1 | < 0.1 | > 1 | 0.1 to 1 |  |  |  |  |  |  |  |  | 
